One series has as its system UACC-62. The series can be described thus: NCI-60 single dose screen, UACC-62. The class given is cell-based. Particulars: Homo sapiens, Melanoma, single concentration 10^−5 M, read-out: IGP (inhibition growth percent) UACC-62. The procedure:
(§1) Aside from above, compounds 9–14 and 17–24 were also submitted to National Cancer Institute and evaluated for the cytotoxic effects toward 60 cell lines at a single dose of 10 μM (Table 2). […] As it was summarized in Table 2, leukemia RPMI-8226 and NSCLC A549/ATCC were most sensitive to compounds 18, 22, and 24. These derivatives in 10 μM concentration inhibited the growth of approximately 50% cells belonging to the above mention cell lines.
(§2) Cytotoxicity evaluation of compounds 9–14 and 17–24 was performed at the National Cancer Institute according to NCI-60 DTP human tumor cell line screen procedure.

For the next series, the system named is HCT-116 (colon cancer). The series can be described thus: MTT cell viability assay, HCT-116. The class given is cell-based. Particulars: Homo sapiens, 72 h, mean ± SD. The procedure:
(§3) All chemicals, if not stated otherwise, were obtained from Sigma-Aldrich (St. Louis, MO, USA). The MCF-7 and HeLa cell lines were purchased from Cell Lines Services (Eppelheim, Germany), the HCT-116 cell line was purchased from ATCC (ATCC-No: CCL-247). Cells were cultured in Dulbecco’s modified Eagle’s medium (DMEM) supplemented with 10% fetal bovine serum, 2 mM glutamine, 100 units/cm^3 penicillin, and 100 μg/cm^3 streptomycin. Cultures were maintained in a humidified atmosphere with 5% CO2 at 37 °C in an incubator (Heraceus, HeraCell).
(§4) Cell viability was determined using the MTT (3-(4,5-dimethylthiazol-2-yl)-2,5-diphenyltetrazolium bromide) assay. Cells were seeded in 96-well plates at a density of 5 × 10^3 cells/well and treated for 72 h with the examined compounds in the concentration range 1–100 μM (1, 10, 25, 50, and 100 μM). Following treatment, MTT (0.5 mg/cm^3) was added to the medium and cells were further incubated for 2 h at 37 °C. Cells were lysed with DMSO and the absorbance of the formazan solution was measured at 550 nm with a plate reader (Victor, 1420 multilabel counter). […] The experiment was performed in triplicate. Values are expressed as the mean ± SD of at least three independent experiments.

A further series has as its system HeLa (cervical cancer). The series can be described thus: MTT cell viability assay, HeLa. Particulars: Homo sapiens. The class given is cell-based. The procedure: as §3, §4
For the next series, the system named is UO-31. The series can be described thus: NCI-60 single dose screen, UO-31. In kind it is cell-based. The settings on record: Homo sapiens, Renal cancer, single concentration 10^−5 M, read-out: IGP (inhibition growth percent) UO-31. The procedure: as §1, §2
Series [1] can be described thus: Metabolic stability in human liver microsomes with NADPH. In kind it is in vitro ADME. Particulars: pooled human liver microsomes, pH 7.4, human liver microsomes 0.5 mg/cm^3, NADPH 1 mM, 10 μM compound, 37 °C, read-out: in vitro metabolic half-life t1/2. The procedure:
Selected derivatives were submitted to metabolic stability study to assess their ability to remain unchanged in the presence of human metabolic enzymes. Human liver microsomes were used as they are a rich source of all common CYP isoenzymes. In vitro incubations were performed in the presence of NADPH as a cofactor and the disappearance of a derivative was followed using LC–MS technique. The in vitro metabolic half-life values are gathered in Fig. 3.
Stock solutions of studied compounds were prepared at concentration of 10 mM in DMSO. […] Incubation mixture contained 10 μM of a studied derivative, 1 mM of NADPH (Sigma-Aldrich) and 0.5 mg/cm^3 of pooled human liver microsomes (HLM, Sigma-Aldrich) in potassium phosphate buffer (0.1 M, pH 7.4). Incubation was carried out in thermostat at 37 °C and started by addition of studied compound. 50 mm^3 samples were taken at starting point and after 5, 15, 30, 45, and 60 min. Enzymatic reaction was terminated by the addition of the equal volume of ice-cold acetonitrile. Incubations were performed in triplicates, the average t1/2 and standard deviation was calculated. Control incubations were performed without NADPH to assess chemical instability. After collection, samples were immediately centrifuged (10 min, 10,000 rpm) and resulted supernatant was directly analyzed or kept in − 80 °C until LC–MS analysis. Natural logarithm of a compound over IS peak area ratio was plotted versus incubation time. Metabolic half-time (t1/2) was calculated from the slope of the linear regression.
LC–MS analysis was performed on an Agilent 1260 system coupled to SingleQuad 6120 mass spectrometer (Agilent Technologies, Santa Clara, CA, USA). Poroshell EC-C18 (2.1 mm × 150 mm, 2.7 μm, Agilent Technologies, Santa Clara, CA, USA) was used in reversed-phase mode with gradient elution starting with 5% of phase A (10 mM ammonium formate in water) and 95% of phase B (10 mM ammonium formate in acetonitrile–water mixture, 95:5 v/v). […] Total analysis time was 15 min at 40 °C, flow rate was 1 cm^3/min and the injection volume was 5 mm^3. The mass spectrometer was equipped with electrospray ion source and operated in positive ionization. Mass analyzer was set individually to each compound to detect [M+H]^+ protonated molecule. MSD parameters of the ESI source were as follows: nebulizer pressure 35 psig (N2), drying gas […] (N2), drying gas temperature 300 °C, capillary voltage 3 kV, fragmentor voltage 150 V.

The next series has as its system SR. The series can be described thus: NCI-60 single dose screen, SR. The class given is cell-based. The settings on record: Homo sapiens, Leukemia, single concentration 10^−5 M, read-out: IGP (inhibition growth percent) SR. The procedure:
as §1, §2

A further series has as its system MOLT-4. In words: NCI-60 single dose screen, MOLT-4. The class given is cell-based. The settings on record: Homo sapiens, Leukemia, single concentration 10^−5 M, read-out: IGP (inhibition growth percent) MOLT-4. The procedure:
as §1, §2

In a further series the test system is RPMI-8226. In words: NCI-60 single dose screen, RPMI-8226. In kind it is cell-based. The settings on record: Homo sapiens, RPMI-8226, Leukemia; single concentration 10^−5 M; read-out: IGP (inhibition growth percent) RPMI-8226. The procedure:
as §1, §2

The next series relates to HOP-92. The series can be described thus: NCI-60 single dose screen, HOP-92. Particulars: Homo sapiens, NSCLC, single concentration 10^−5 M, read-out: IGP (inhibition growth percent) HOP-92. The class given is cell-based. The procedure: as §1, §2
The subject of a further series is HCT-116. The series can be described thus: NCI-60 single dose screen, HCT-116. In kind it is cell-based. Particulars: Homo sapiens, Colon cancer, single concentration 10^−5 M, read-out: IGP (inhibition growth percent) HCT-116. The procedure:
as §1, §2

The next series concerns EKVX. The series can be described thus: NCI-60 single dose screen, EKVX. The settings on record: Homo sapiens, NSCLC, single concentration 10^−5 M, read-out: IGP (inhibition growth percent) EKVX. The class given is cell-based. The procedure: as §1, §2
In another series the test system is MCF-7. The series can be described thus: NCI-60 single dose screen, MCF-7. The class given is cell-based. The settings on record: Homo sapiens, MCF7; Breast cancer; single concentration 10^−5 M; read-out: IGP (inhibition growth percent) MCF-7. The procedure: as §1, §2
A further series concerns MCF-7 (breast cancer). In words: MTT cell viability assay, MCF-7. In kind it is cell-based, human. The settings on record: Homo sapiens, MCF7, 72 h, mean ± SD. The procedure:
(§5) All of the newly synthesized compounds 9–24 were evaluated for their effects on cell viability in three human cancer cell lines: HCT-116 (colon cancer), HeLa (cervical cancer), and MCF-7 (breast cancer). Cisplatin was used as reference drug. […] Considering the activity of derivatives 9–12, 15, 17, 18, and 21–24, it can be noticed that phenyl group as R^3 bring an increase of cytotoxicity in comparison with methyl in place of R^3. However, this impact seems to be the most important for compounds with the bulky group in R^1 and generally, it is less for a set of derivatives with methyl group substituted in R^1 (9–12).
as §3, §4

A further series relates to PC-3. The series can be described thus: NCI-60 single dose screen, PC-3. The settings on record: Homo sapiens, Prostate cancer, single concentration 10^−5 M, read-out: IGP (inhibition growth percent) PC-3. The class given is cell-based. The procedure: as §1, §2
A further series concerns HCT-116, HeLa, MCF-7. In words: MTT assays, mean over three tested cell lines. Particulars: Homo sapiens, mean of HCT-116, HeLa, read-out: mean IC50 against three tested cell lines. In kind it is cell-based. The procedure: as §5, §4
The test system of another series is HaCaT. The series can be described thus: Cytotoxic effect against non-carcinogenic cell line HaCaT. In kind it is cell-based. The procedure: For the compounds with the strongest cytotoxicity (12, 18, 22, and 24), an investigation of cytotoxic effect against non-carcinogenic cell line HaCaT was done. […] The activity against HCT-116 was 1.7-, 1.6-, 1.5-, and 1.4-fold higher when compared with HaCaT cell line, for compounds 12, 18, 22, and 24, respectively.
as §4

Another series deals with NCI-H522. The series can be described thus: NCI-60 single dose screen, NCI-H522. In kind it is cell-based. The settings on record: Homo sapiens, NSCLC, single concentration 10^−5 M, read-out: IGP (inhibition growth percent) NCI-H522. The procedure: as §1, §2
For the next series, the system named is A549/ATCC. In words: NCI-60 single dose screen, A549/ATCC. In kind it is cell-based. Particulars: Homo sapiens, A549, NSCLC; single concentration 10^−5 M; read-out: IGP (inhibition growth percent) A549/ATCC. The procedure: as §1, §2
[2] abbreviates: Table 4, repeats Table 1 values without SD and unit.

Turning to `Cc1cc(S(=O)(=O)Nc2nc(-c3ccccc3)c3ccccc3n2)c(SCc2ccccc2)cc1Cl` [Compound 10, 2-Benzylthio-4-chloro-5-methyl-N-(4-phenylquinazolin-2-yl)benzenesulfonamide], the melting point is 192 to 198 °C. Besides, the inhibition at 10 µM in the series with UACC-62 was found to be 29%. Besides, the IC50 in the series on HCT-116 (colon cancer) came to 44 ± 1 µM. Further, 61 ± 2 µM corresponded to half-maximal inhibition with HeLa (cervical cancer) (MTT, 72 h, mean ± SD) (IC50). In addition, the IC50 in the series with HeLa (cervical cancer) (setting [2]) was found to be 61 µM. Also, the inhibition at 10 µM in the series with UO-31 amounted to 5%. Also, in [1], the half-life at 10 μM was 49.2 min. Further, in the series on SR, the inhibition at 10 µM was 14%. Further, the inhibition at 10 µM in the series with MOLT-4 is 25%. Besides, the inhibition at 10 µM in the series on RPMI-8226 was 25%. Moreover, the inhibition at 10 µM with HOP-92 is 17%. The inhibition at 10 µM in the series with HCT-116 amounted to 8%. In addition, in the series on EKVX, the inhibition at 10 µM is 6%. Also, the inhibition at 10 µM in the series on MCF-7 worked out at 9%. The IC50 with MCF-7 (breast cancer) was found to be 57 ± 1 µM.

Regarding `Cc1cc(S(=O)(=O)Nc2nc(-c3ccccc3)c3ccccc3n2)c(SCc2cc3c(cc2Cl)OCO3)cc1Cl` [Compound 12, 4-Chloro-2-(6-chlorobenzo[d][1,3]dioxol-5-ylmethylthio)-5-methyl-N-(4-phenylquinazolin-2-yl)benzenesulfonamide], the inhibition at 10 µM in the series on PC-3 turned out to be 14%; in the series with UACC-62, 33%; in the series with UO-31, 25%; in the series with MOLT-4, 12%; with NCI-H522 it was 16%; with RPMI-8226, 2%. The results for the inhibition at 10 µM in the series with A549/ATCC, with HCT-116 and with MCF-7 were 14%, 6% and 5%, respectively. Also, the IC50 in the series with HCT-116 (colon cancer) was 37 ± 1 µM; with HeLa (cervical cancer) (MTT, 72 h, mean ± SD), 46 ± 1 µM; in the series on HeLa (cervical cancer) (setting [2]), 46 µM; in the series on HCT-116, HeLa, MCF-7, 44.7 µM; in the series on HaCaT (Homo sapiens, HaCaT, non-carcinogenic cell line, mean ± SD) it was 64 ± 2 µM; in the series on MCF-7 (breast cancer) it was 51 ± 2 µM. Also, the half-life at 10 μM in series [1] came out at 48.1 min. The “activity against HCT-116 fold higher compared with HaCaT” value in the series on HaCaT (selectivity HCT-116 vs HaCaT) came to 1.7 fold. Further, in the series on HaCaT (selectivity HeLa vs HaCaT), the “inhibition of growth of HaCaT cells fold weaker than HeLa cells” value is 1.4 fold.

The record behind these values is publication PMC6133092, “Synthesis of 2-alkylthio-N-(quinazolin-2-yl)benzenesulfonamide derivatives: anticancer activity, QSAR studies, and metabolic stability” (Monatshefte Fur Chemie, 2018).
